Measurements published in patent publication US20070111965A1, “COMPOSITIONS COMPRISING LIPOXYGENASE INHIBITORS AND CYCLODEXTRIN” (priority 2005, published 2007).

What was measured:
[1] = type: physicochemical
Description: The low solubility in water of certain N-hydroxyurea 5- and/or 12-lipoxygenase inhibitors prevents these beneficial agents from broader use than they would otherwise enjoy if aqueous formulations could be prepared at therapeutically effective concentrations. […] In addition to its poor solubility, zileuton and likely other N-hydroxyurea lipoxygenase inhibitors are predicted to be chemically unstable in aqueous solution for storage at room temperature for prolonged periods of time [Insert Reference]. Degradation is consistent with specific hydronium- or water-catalyzed hydrolysis to afford the carbamic acid, which immediately loses carbon dioxide to generate the hydroxylamine as shown below. [drawing 2]
No buffer catalysis has been observed for zileuton. Using acid- and water-catalyzed rate constants at 25° C., the pseudo first-order rate constant is determined to be approximately 7.8×10^−5 h^−1 over a pH range of about 3.5 to about 7.5. The shelf life at 10% drug loss is calculated to be 57.3 days at an optimal pH of 5.6.
Based on literature data [Alvarez, F J; Slade, R T. Kinetics and mechanism of degradation of zileuton, a potent 5-lipoxygenase inhibitor. Pharm. Res., 1992, 9(11): 1465-1473], zileuton in solution is expected to have adequate short-term stability (at least 1 month at 25° C.) over a pH range of 4 to 7.

[2] = cited from earlier work
[3] = 25° C., pH range of 4 to 7, literature data; cited from earlier work

CC(c1cc2ccccc2s1)N(O)C(N)=O (racemic) [zileuton, ((±)-1-(1-benzo[b]thien-2-ylethyl)-1-hydroxyurea]
pseudo first-order rate constant (degradation) [1]: approximately 7.8×10^−5 h^−1 | shelf life at 10% drug loss ([1]; optimal pH of 5.6, 25° C.): 57.3 days | solubility in acetonitrile ([2]; acetonitrile): slightly soluble | solubility in hexane and water ([2]; hexane and water): practically insoluble | solubility in methanol and ethanol ([2]; methanol and ethanol): soluble | water solubility ([2]; water, 25° C.): 80 to 140 µg/mL | short-term stability in solution [3]: at least 1 month
